Laboratory results published in the supplement of paper PMC6723410.

Test system: GUMC-403
Assay: viability at highest tested concentration (max response) relative to DMSO (% of DMSO control); higher = less cytotoxic
Settings: library / dose series: MIPE library, 11-point 1:3 dilution, 48 h
How it was run: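 GUMC-403 papilloma cells, derived from a patient and expanded by conditional reprogramming, were dispensed at 700/well into 1536-well plates in 5 μL F + Y medium. A pin tool delivered 23 nL of each compound across an 11-point 1:3 dilution series for 48 h. CellTiter-Glo luminescence, read on a ViewLux, was normalised so that vehicle wells equalled 100% and empty wells 0%. Values report viability at the highest tested concentration relative to vehicle control.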

Structure (SMILES)	viability (top concentration 46.1 µM)	viability (top concentration 92.2 µM)
COc1cc(NCc2ccc3nc(N)nc(N)c3c2C)cc(OC)c1OC	99.5	
CCN(CCO)CCCOc1ccc2c(Nc3cc(CC(=O)Nc4cccc(F)c4)[nH]n3)ncnc2c1	105	
O=C(/C=C/C=C/c1ccc2c(c1)OCO2)N1CCCCC1	114	
CCc1c(C(=O)C(N)=O)c2c(OCC(=O)O)cccc2n1Cc1ccccc1	103	
CNCC(O)c1ccc(O)cc1 (stereo not drawn)	132	
COc1cc2nc(N3CCN(C(=O)c4ccco4)CC3)nc(N)c2cc1OC	23.4	
C[S+](=O)([O-])N(Cc1ccco1)CC(O)Cn1c2ccccc2c2ccccc21 (stereo not drawn)	90.4	
NC(=O)N1CCC(CC(=O)N2CCC([C@H]3c4ncc(Br)cc4CCc4cc(Cl)cc(Br)c43)CC2)CC1	101	
CC1CCC(C(=O)N(c2cc(C#CC(C)(C)C)sc2C(=O)O)C2CCC(O)CC2)CC1 (stereo not drawn)	106	
CN1CCN(C2=Nc3cc(Cl)ccc3Nc3ccccc32)CC1	109	
ClC1=C(N\C2=N\CCN2)C3=NSN=C3C=C1	129	
Cn1cc(/C=C2\C(=O)Nc3cccnc32)c2ccccc21	132	
CC\1=C(C(\N=C(/N1)C2=CC(=NC=C2)Cl)C3=C(F)C=C(Cl)C=C3)/C(=O)NC4=C(F)C=C5[NH]N=CC5=C4 (stereo not drawn)	101	
CO[C@H]1C[C@@H]2CC[C@@H](C)[C@@](O)(O2)C(=O)C(=O)N2CCCC[C@H]2C(=O)O[C@H]([C@@H](C)C[C@@H]2CC[C@@H](O)[C@H](OC)C2)CC(=O)[C@H](C)/C=C(\C)[C@@H](O)[C@@H](OC)C(=O)[C@H](C)C[C@H](C)/C=C/C=C/C=C/1C	106	
Cc1cn2cc(C(=O)N(C)CCO)cc(N[C@@H]3CCOc4cccc(C)c43)c2n1	144	
CC=CC1=C(C(=O)O)N2C(=O)[C@@H](NC(=O)[C@H](N)c3ccc(O)cc3)[C@H]2SC1.O	147	
CC[C@@H]([C@H](C)O)n1ncn(-c2ccc(N3CCN(c4ccc(OCC5CO[C@@](Cn6cncn6)(c6ccc(F)cc6F)C5)cc4)CC3)cc2)c1=O (stereo partly drawn)	101	
O=C(/C=C/c1c(C(=O)[O-])[nH]c2cc(Cl)cc(Cl)c12)Nc1ccccc1	111	
Fc1ccc(C(c2ccc(F)cc2)N2CCN(C/C=C/c3ccccc3)CC2)cc1	109	

Structure (SMILES)	viability (top concentration 46.1 µM)	viability (top concentration 92.2 µM)
Cc1ccc([S+](=O)([O-])Nc2cc(Cl)ccc2C(=O)Nc2nc(-c3ccccc3)cs2)cc1	104	
C[C@@H]\1CC(=O)N\N=C1C2=CC=C(NN=C(C#N)C#N)C=C2	92.1	
C[C@@H]1CC[C@@]2(OC1)O[C@H]3C[C@H]4[C@@H]5C/C=C6/C[C@H](CC[C@]6(C)[C@H]5CC[C@]4(C)[C@H]3[C@@H]2C)O[C@@H]7O[C@H](CO)[C@@H](O[C@@H]8O[C@@H](C)[C@H](O)[C@@H](O)[C@H]8O)[C@H](O)[C@H]7O[C@@H]9O[C@@H](C)[C@H](O)[C@@H](O)[C@H]9O	112	
C[S+]([O-])c1ccc(-c2nc(-c3ccc(F)cc3)c(-c3ccncc3)[nH]2)cc1 (stereo not drawn)		71.3
N=C(N)NC(=O)c1nc(Cl)c(N)nc1N	125	
COC(=O)N1CCN(Cc2cccc(NC(=O)Nc3ccc(C)nc3)c2F)CC1	105	
OC1=CC2=C(C(=C1)O)C(=O)\C(=C(/O2)C3=CC(=C(O)C=C3)O)O	147	
O=C(Oc1ccc([N+](=O)[O-])cc1)N1CCC(C(O)(c2ccc3c(c2)OCO3)c2ccc3c(c2)OCO3)CC1	105	
CCC(=O)O[C@@]1([C@@H](C)C[C@H]2[C@@H]3CCC/4=C/C(=O)/C=C\[C@]4(C)[C@@]3(F)[C@@H](O)C[C@]12C)C(=O)CCl	148	
O=P1(N(CCCl)CCCl)NCCCO1 (stereo not drawn)	116	
CNC(=O)c1cc(Oc2ccc(NC(=O)Nc3cc(C(C)(C)C)nn3-c3ccc4ncccc4c3)c(F)c2)ccn1	83.8	
Nc1nc(F)nc2c1ncn2[C@@H]1O[C@H](COP(=O)(O)O)[C@@H](O)[C@@H]1O	101	
C[C@H]1[C@@H](C(=O)C[C@H]2O[C@@H]3O[C@]4(C)CC[C@H]5[C@H](C)CC[C@@H]([C@H]2C)[C@@]35OO4)O[C@@H]2O[C@]3(C)CC[C@H]4[C@H](C)CC[C@@H]1[C@@]24OO3	121	
C[C@H]1C[C@H]2[C@@H]3CC[C@](O)(C(=O)CO)[C@@]3(C)C[C@H](O)[C@@H]2[C@@]\4(C)/C=C\C(=O)\C=C14	121	
COc1cc2nccc(Oc3ccc(NC(=O)Nc4ccc(F)cc4F)c(F)c3)c2cc1OC	91.3	
C[C@@H]1CC[C@H]2[C@@H](C)C(=O)O[C@@H]3O[C@@]4(C)CC[C@@H]1[C@]32OO4	109	
CC[C@H]1/C=C\C=C/C[C@@H](C)[C@H](O)[C@@](C)(O)C(=O)[C@@H](C)[C@H](O)[C@@H](C)C(=O)[C@@H](C)[C@H](O)[C@@H](C)/C=C/C(=O)O[C@@H]2[C@H](C)[C@H](CC1)O[C@]1(CC[C@H](C)[C@H](C[C@@H](C)O)O1)[C@H]2C	146	
CCc1ccc(CCOc2ccc(CC3SC(=O)NC3=O)cc2)nc1 (stereo not drawn)	103	
O=C(O)C1(Cc2cccc(Nc3nccs3)n2)CCC(Oc2cccc(Cl)c2F)CC1 (stereo not drawn)	115	
